Test results as given in patent US20240358663A1, “COMPOSITIONS AND METHODS FOR THE TREATMENT OF PULMONARY ARTERIAL HYPERTENSION” (The Regents of the University of Michigan, priority 2016, published 2024).
Entries after “also recorded” stand apart in the source; their conditions may differ.

Tested on: CD39^+/+ and CD39^−/− mice exposed to hypoxia
Test: Ectonucleotidase reconstitution and P2X1 receptor blocking in murine chronic hypoxia model of pulmonary hypertension
Assay type: in vivo, mouse
Details: for development of pulmonary hypertension (PH): continuous infusion during four weeks of hypoxia, CD39^+/+ and CD39^−/− mice; for pulmonary arterial pressures: continuous administration
Source text: Seven-week-old CD39^+/+ and CD39^−/− mice were maintained at 10% oxygen (normobaric) for four weeks using a purpose-built, normobaric hypoxia chamber with automated oxygen-regulating capability. Circulating air was scavenged using charcoal and soda lime (Sigma-Aldrich, St. Louis, MO). Temperature and humidity were monitored, and the latter maintained within normal limits using Dririte (Sigma-Aldrich, St. Louis, MO). Normoxic control mice were maintained in the same room at 21% oxygen, which was verified by a continuous oxygen sensor (BioSpherix, Lacona, NY). All animals were given free access to food and water, and were maintained on a 12-hour dark/light cycle.
Mice were anesthetized using 2% isoflurane. A tracheostomy was performed, and animals were ventilated using 21% or 10% oxygen administered thorough the ventilator circuit. Optimal ventilator settings were confirmed using arterial blood gas measurements. After a median sternotomy was performed, hemodynamic measurements were made using a 1.2F solid state pressure catheter (Scisense Transonic, London, ON) inserted through the right ventricular (RV) free wall into the RV cavity and advanced into the pulmonary artery (PA). Placement was verified using the pressure waveform. Data including the right ventricular systolic pressure (RVSP) and mean PA (mPA) pressures were collected and analyzed using LabScribe2 (iWorx, Dover, NH). Continuous EKG monitoring was performed using the MouseMonitor (Indus Instruments, Webster, TX).
Alzet osmotic pumps (DURECT, Cupertino, CA) were used to deliver either 15 units of
apyrase (A6410, Sigma-Aldrich, St. Louis, MO), 25 mM of NF279 (Tocris Bioscience/Bio-Techne, Minneapolis, MN) or sterile 0.9% sodium chloride over a four-week period at a rate of 0.11 μl/hr.
Based upon findings of increased intravascular ATP and ADP, significant up-regulation of the P2X1 receptor, and severe pulmonary hypertension in hypoxic CD39-mice, two sets of rescue experiments were designed aimed at reversing the PH phenotype. The first rescue experiment involved the reconstitution of intravascular ectonucleotidase activity. Soluble potato tuber apyrase has known ATPase and ADPase activity, and has been used in prior studies involving CD39^−/− mice (ref. 24, 44; incorporated by reference in their entireties). Sequence homology of this apyrase is similar to human and murine CD39 (ref. 19; incorporated by reference in its entirety). […] The second rescue experiment involved the continuous infusion of NF279 (8,8′-[Carbonylbis (imino-4,1-phenylenecarbonylimino-4,1-phenylenecarbonylimino)]bis-1,3,5-naphthalenetrisulfonic acid hexasodium salt):
a sensitive and specific P2X1 antagonist, during four weeks of hypoxia. […] Pulmonary Vessels from Patients with IPAH have Increased P2X1 Receptors

Compound	development of pulmonary hypertension (PH) (FIG. 5c)	pulmonary arterial pressures (hypoxic CD39^−/− mice)	right ventricular systolic pressure (RVSP) (continuous subcutaneous administration during four weeks of hypoxia (10% oxygen), compared to control mice that received continuous saline infusions, FIG. 5c)	RVSP relative to levels found in normoxic CD39^+/+ mice (hypoxic CD39^−/− mice, four weeks of continuous administration, FIG. 5c)
O=C(Nc1ccc(C(=O)Nc2ccc(C(=O)Nc3ccc(S(=O)(=O)[O-])c4cc(S(=O)(=O)[O-])cc(S(=O)(=O)[O-])c34)cc2)cc1)Nc1ccc(C(=O)Nc2ccc(C(=O)Nc3ccc(S(=O)(=O)[O-])c4cc(S(=O)(=O)[O-])cc(S(=O)(=O)[O-])c34)cc2)cc1.[Na+].[Na+].[Na+].[Na+].[Na+].[Na+] [NF279, 8,8′-[Carbonylbis (imino-4,1-phenylenecarbonylimino-4,1-phenylenecarbonylimino)]bis-1,3,5-naphthalenetrisulfonic acid hexasodium salt, reference compound]	prevented the development of PH in all groups; also recorded: protected both CD39^+/+ and CD39-4-mice from the development of hypoxic pulmonary hypertension	lowered pulmonary arterial pressures even further		
apyrase	provided partial protection against the development of pulmonary hypertension	decreased pulmonary arterial pressures in hypoxic CD39-mice to levels found in hypoxic CD39^+/+ controls	significantly decreased the RVSP	did not decrease the RVSP in hypoxic CD39^−/− mice to levels found in normoxic CD39^+/+ mice
